Laboratory results reported in the supplement of paper PMC11451515.

Test system: P12-Ichikawa
Assay: cell viability relative to DMSO control; higher = less cytotoxic
Details: 48 h
Method in brief: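 Library compounds in DMSO were pin-dosed in an 11-point threefold series (47 μM to 0.79 nM) onto leukemia cells in 1536-well plates (5 μl). Plates held 500 cells/well of NOMO1 or SEM or 1000 cells/well of P12-Ichikawa, each adapted for at least four passages in each medium. Luminescence was read with CellTiter-Glo One after 48 h at 37°C. Viability means the per-plate percentage relative to DMSO wells, using cell-free wells as background.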

[1] = HPLM + 10% dialyzed FBS, 0.000781 µM
[2] = HPLM + 10% dialyzed FBS, 0.00234 µM
[3] = HPLM + 10% dialyzed FBS, 0.00702 µM
[4] = HPLM + 10% dialyzed FBS, 0.0211 µM
[5] = HPLM + 10% dialyzed FBS, 0.0632 µM
[6] = HPLM + 10% dialyzed FBS, 0.19 µM
[7] = HPLM + 10% dialyzed FBS, 0.569 µM
[8] = HPLM + 10% dialyzed FBS, 1.71 µM
[9] = HPLM + 10% dialyzed FBS, 5.12 µM
[10] = HPLM + 10% dialyzed FBS, 15.4 µM
[11] = HPLM + 10% dialyzed FBS, 46.1 µM
[12] = RPMI 5 mM glucose + 10% FBS, 0.000781 µM
[13] = RPMI 5 mM glucose + 10% FBS, 0.00234 µM
[14] = RPMI 5 mM glucose + 10% FBS, 0.00702 µM
[15] = RPMI 5 mM glucose + 10% FBS, 0.0211 µM
[16] = RPMI 5 mM glucose + 10% FBS, 0.0632 µM
[17] = RPMI 5 mM glucose + 10% FBS, 0.19 µM
[18] = RPMI 5 mM glucose + 10% FBS, 0.569 µM
[19] = RPMI 5 mM glucose + 10% FBS, 1.71 µM
[20] = RPMI 5 mM glucose + 10% FBS, 5.12 µM
[21] = RPMI 5 mM glucose + 10% FBS, 15.4 µM
[22] = RPMI 5 mM glucose + 10% FBS, 46.1 µM
[23] = RPMI 5 mM glucose + 10% dialyzed FBS, 0.000781 µM
[24] = RPMI 5 mM glucose + 10% dialyzed FBS, 0.00234 µM
[25] = RPMI 5 mM glucose + 10% dialyzed FBS, 0.00702 µM
[26] = RPMI 5 mM glucose + 10% dialyzed FBS, 0.0211 µM
[27] = RPMI 5 mM glucose + 10% dialyzed FBS, 0.0632 µM
[28] = RPMI 5 mM glucose + 10% dialyzed FBS, 0.19 µM
[29] = RPMI 5 mM glucose + 10% dialyzed FBS, 0.569 µM
[30] = RPMI 5 mM glucose + 10% dialyzed FBS, 1.71 µM
[31] = RPMI 5 mM glucose + 10% dialyzed FBS, 5.12 µM
[32] = RPMI 5 mM glucose + 10% dialyzed FBS, 15.4 µM
[33] = RPMI 5 mM glucose + 10% dialyzed FBS, 46.1 µM

Row | SMILES | cell viability [1] | cell viability [2] | cell viability [3] | cell viability [4] | cell viability [5] | cell viability [6] | cell viability [7] | cell viability [8] | cell viability [9] | cell viability [10] | cell viability [11] | cell viability [12] | cell viability [13] | cell viability [14] | cell viability [15] | cell viability [16] | cell viability [17] | cell viability [18] | cell viability [19] | cell viability [20] | cell viability [21] | cell viability [22] | cell viability [23] | cell viability [24] | cell viability [25] | cell viability [26] | cell viability [27] | cell viability [28] | cell viability [29] | cell viability [30] | cell viability [31] | cell viability [32] | cell viability [33]
1 | O=C1[C@H](Cc2ccc(O)cc2)N2C(=O)CCN(C(=O)NCc3ccccc3)[C@H]2CN1Cc1cccc2ccccc12 | 86.7% | 90.8% | 85.3% | 89.4% | 87.9% | 88.1% | 85.4% | 85.5% | 91.2% | 47.9% | 85.8% | 76.6% | 84.4% | 76.3% | 83% | 88.6% | 87.7% | 83% | 74% | 84.1% | 35% | 84.2% | 77.4% | 78.2% | 80.4% | 79.5% | 85% | 82.1% | 77.3% | 75.4% | 81.1% | 33.2% | 72.5%
2 | COC(=O)C[C@](O)(CCCC(C)(C)O)C(=O)O[C@@H]1C(OC)=CC23CCCN2CCc2cc4c(cc2[C@H]13)OCO4 (stereo partly specified) | 105% | 102% | 111% | 99.4% | 110% | 106% | 102% | 97.1% | 102% | 91.3% | 88.1% | 99% | 101% | 111% | 94.8% | 91.5% | 101% | 103% | 97.7% | 95.1% | 91.7% | 94.1% | 102% | 104% | 98.6% | 99.7% | 102% | 98.3% | 97.3% | 96% | 91.6% | 100% | 89.5%
3 | c1ccc2[nH]c(-c3cscn3)nc2c1 | 115% | 124% | 124% | 128% | 122% | 128% | 122% | 122% | 108% | 86% | 74.6% | 113% | 118% | 110% | 122% | 128% | 120% | 128% | 120% | 135% | 117% | 90.7% | 124% | 131% | 122% | 124% | 130% | 127% | 130% | 121% | 125% | 109% | 72.9%
4 | CC[C@H](/C=C/[C@@H](C)[C@H]1CC[C@H]2[C@@H]3CC=C4C[C@@H](O)CC[C@]4(C)[C@H]3CC[C@]12C)C(C)C | 100% | 109% | 94.3% | 99.3% | 104% | 101% | 99.5% | 93.2% | 87.7% | 85.9% | 87.5% | 92.9% | 94.3% | 97.1% | 95.9% | 105% | 96.3% | 94.9% | 91.3% | 89.6% | 83.9% | 93.7% | 92.7% | 95.2% | 93% | 87.3% | 91.8% | 94.6% | 88.4% | 87.8% | 87% | 85.2% | 86.6%
5 | C[C@]12CC[C@@H]3c4ccc(O)cc4CC[C@H]3[C@@H]1[C@@H](O)[C@@H](O)[C@@H]2O | 119% | 117% | 119% | 112% | 120% | 124% | 122% | 120% | 119% | 125% | 124% | 105% | 113% | 109% | 104% | 123% | 118% | 122% | 121% | 126% | 131% | 113% | 111% | 120% | 118% | 115% | 120% | 127% | 127% | 133% | 127% | 129% | 135%
6 | C[C@]12COC(=O)C[C@@H]1CC[C@@H]1[C@@H]2CC[C@@]2(C)[C@H]1CC[C@]2(C)O | 105% | 107% | 117% | 107% | 110% | 102% | 107% | 103% | 102% | 100% | 88.1% | 106% | 109% | 101% | 100% | 107% | 105% | 113% | 98.3% | 101% | 103% | 97.4% | 101% | 98.6% | 97.5% | 104% | 92.3% | 101% | 99.2% | 104% | 94.1% | 98.7% | 95.2%
7 | FC1=CC=C(C=C1)N2/C=C\C=C(C(=O)NC3=CC=C(OC4=C5C=C[NH]C5=NC=C4)C(=C3)F)/C2=O | 99% | 111% | 107% | 114% | 117% | 118% | 122% | 112% | 114% | 123% | 115% | 104% | 111% | 121% | 112% | 132% | 119% | 128% | 122% | 127% | 119% | 111% | 109% | 107% | 114% | 125% | 117% | 124% | 125% | 119% | 129% | 120% | 114%
